Numbers after ± are expanded uncertainties.
Experiment: mn = molality of the nth substance listed, in mol/kg
Details: 298.15 K, 101.33 kPa, Liquid

NCC(=O)O [2-aminoacetic acid] + O
viscosity (m1 = 0.4993): 0.9561 ± 0.031 mPa·s | viscosity (m1 = 0.7501): 0.9914 ± 0.032 mPa·s | viscosity (m1 = 1): 1.028 ± 0.033 mPa·s | viscosity (m1 = 1.499): 1.106 ± 0.035 mPa·s | viscosity (m1 = 1.5): 1.106 ± 0.035 mPa·s | viscosity (m1 = 2): 1.189 ± 0.037 mPa·s

C[C@H](N)C(=O)O [(S)-2-aminopropanoic acid] + O
viscosity (m1 = 0.1002): 0.9179 ± 0.03 mPa·s | viscosity (m1 = 0.4992): 1.017 ± 0.032 mPa·s | viscosity (m1 = 0.7503): 1.08 ± 0.034 mPa·s | viscosity (m1 = 0.9992): 1.152 ± 0.036 mPa·s

NCC(=O)NCC(=O)O [glycylglycine] + O
viscosity (m1 = 0.0995): 0.9265 ± 0.03 mPa·s | viscosity (m1 = 0.0998): 0.9265 ± 0.03 mPa·s | viscosity (m1 = 0.5004): 1.062 ± 0.034 mPa·s | viscosity (m1 = 0.7502): 1.145 ± 0.036 mPa·s

— the NIST ThermoML archive (doi:10.1016/j.jct.2004.07.006)
